In the assay the target is T1, Rat hepatic HMG-CoA reductase (Rattus norvegicus, UniProt P51639).
T1 construct: Livers are removed from 2-4 cholestyramine-fed, decapitated, Sprague Dawley rats, and homogenized in phosphate buffer A; from tissue; host or cells: liver microsomes of cholestyramine-fed Sprague Dawley rats
T1 sequence (P51639 1-887): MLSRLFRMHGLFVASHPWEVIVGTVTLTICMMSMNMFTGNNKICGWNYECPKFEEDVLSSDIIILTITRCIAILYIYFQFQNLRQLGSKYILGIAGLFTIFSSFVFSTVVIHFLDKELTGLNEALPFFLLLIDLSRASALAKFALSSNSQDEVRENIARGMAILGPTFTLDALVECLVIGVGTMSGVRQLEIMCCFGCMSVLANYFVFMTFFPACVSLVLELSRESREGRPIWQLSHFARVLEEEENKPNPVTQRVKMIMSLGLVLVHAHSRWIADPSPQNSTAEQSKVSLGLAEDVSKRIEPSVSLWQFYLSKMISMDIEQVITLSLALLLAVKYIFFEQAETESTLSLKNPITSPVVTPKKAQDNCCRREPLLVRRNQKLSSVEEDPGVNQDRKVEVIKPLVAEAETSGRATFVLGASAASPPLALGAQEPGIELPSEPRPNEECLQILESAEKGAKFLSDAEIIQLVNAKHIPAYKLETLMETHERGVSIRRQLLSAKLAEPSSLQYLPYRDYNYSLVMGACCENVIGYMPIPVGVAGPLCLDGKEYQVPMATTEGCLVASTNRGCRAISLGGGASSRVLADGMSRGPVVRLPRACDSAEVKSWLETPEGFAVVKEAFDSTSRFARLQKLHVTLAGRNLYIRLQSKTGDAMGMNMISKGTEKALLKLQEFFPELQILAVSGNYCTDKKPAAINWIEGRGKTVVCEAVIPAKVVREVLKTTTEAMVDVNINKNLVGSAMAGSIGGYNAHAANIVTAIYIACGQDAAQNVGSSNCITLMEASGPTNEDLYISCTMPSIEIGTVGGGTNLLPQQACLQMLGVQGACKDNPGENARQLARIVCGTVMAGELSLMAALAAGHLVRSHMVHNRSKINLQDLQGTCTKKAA
Nature of the assay: Rat Hepatic HMG-CoA Reductase test (conversion of 14C-HMG-CoA to 14C-mevalonic acid by rat hepatic microsomes). The class given is biochemical. As to conditions: concentration producing 50% inhibition of enzyme activity, 100 µM HMG-CoA, 20 minutes at 37° C, read-out: Reductase 150. As to the method: 1) Rat Hepatic HMG-CoA Reductase
Rat hepatic HMG-CoA reductase activity is measured using a modification of the method described by Edwards (Edwards, P.A., et al., J. Lipid Res. 20:40, 1979). Rat hepatic microsomes are used as a source of enzyme, and the enzyme activity is determined by measuring the conversion of the ^14C-HMG-CoA substrate to 14C-mevalonic acid.
a. Preparation of Microsomes
Livers are removed from 2-4 cholestyramine-fed, decapitated, Sprague Dawley rats, and homogenized in phosphate buffer A (potassium phosphate, 0.04 M, pH 7.2; KCI, 0.05 M; sucrose, 0.1 M; EDTA, 0.03 M; aprotinin, 500 KI units/ml). The homogenate is spun at 16,000 x g for 15 minutes at 4°C. The supernatant is removed and recentrifuged under the same conditions a second time. The second 16,000 x g supernatant is spun at 100,000 x g for 70 minutes at 4° C. Pelleted microsomes are resuspended in a minimum volume of buffer A (3-5 ml per liver), and homogenized in a glass/glass homogenizer. […]
Standardized assays for the evaluation of inhibitors are conducted according to the following procedure. […] The first 0.5 ml is discarded, and the next 1.5 ml is collected and counted for both tritium and carbon 14 in 10.0 ml Opti-fluor scintillation fluid. Results are calculated as nmoles mevalonic acid produced per 20 minutes, and are corrected to 100% recovery of tritium. […]

Drawing on EP0463456A1, “Phosphorus-containing HMG-CoA reductase inhibitors, new intermediates and their use” (E.R. SQUIBB & SONS, INC., priority 1990, dated 1992), this text covers IC50 for one substance.

As to “(S)-4-[[[4-(4-Fluorophenyl)-1,2-bis(1-methylethyl)-5-phenyl-1H-pyrrol-3-yl]-ethynyl]hydroxyphosphinyl]-3-hydroxybutanoic acid, dilithium salt [SQ 34,346]”, the IC50 is 0.6 nM.
